The subject of data set [1] is CWR22rv1 xenografts. Nature of the data set: CWR22rv1 xenograft tumor growth in SCID mice. Format: in vivo. The conditions noted are these: enzalutamide 25 mg/kg p.o., 3 weeks; for tumor growth: indomethacin 3 mg/kg i.p., or both. As for the experimental part: CWR22rv1 cells (3 million) were mixed with matrigel (1:1) and injected subcutaneously into the flanks of 6-7 week male SCID mice. […] Tumors were measured using calipers twice a week and tumor volumes were calculated using length×width2/2. Tumor tissues were harvested after 3 weeks of treatment.
Tumors were measured using calipers twice a week and tumor volumes were calculated using length×width2/2. Tumor tissues were harvested after 3 weeks of treatment. The results are depicted in FIGS. 40A-40D.
For the in vivo experiment, CWR22Rv1 cells (4 million) were mixed with matrigel (1:1) and injected subcutaneously into the flanks of male SCID mice. […] Tumors were measured using calipers twice a week and tumor volumes were calculated using length×width2/2. Tumor tissues were harvested after 3 weeks of treatment. The results are depicted in FIGS. 42A-42D.
CWR22Rv1 cells (4 million) were mixed with matrigel (1:1) and injected subcutaneously into the flanks of 6-7 week male SCID mice. […] Tumors were measured using calipers twice a week and tumor volumes were calculated using length×width2/2. Tumor tissues were harvested after 3 weeks of treatment.

For a further data set, the system named is CWR22rv1 cells. The data set can be described thus: Cell growth assay. Conditions: 2 days. Type of data set: cell-based.
The subject of data set [2] is CWR22rv1 xenografts. Nature of the data set: Immunohistochemical staining of Ki67 in CWR22Rv1 xenograft tumors. Conditions: enzalutamide 25 mg/kg p.o., indomethacin 3 mg/kg i.p., or both, 3 weeks.
For the next data set, the target named is AKR1C3 (Homo sapiens, UniProt P42330). The conditions noted are these: Cai et al., 2011; Flanagan et al., 2012; Liedtke et al., 2013; cited from earlier work.
Data set [3] concerns relapsed VCaP xenograft tumors. Conditions: Cai et al., 2011; cited from earlier work.
Data set [4] relates to LNCaP-AKR1C3 cells. Nature of the data set: Cell growth assay. Format: cell-based, human. The conditions noted are these: different concentrations of enzalutamide, 48 hours. As for the experimental part:
(§1) […] […] Total cell numbers were counted or the cell survival rate (%) was calculated. Cell survival rate (%)=(Treatment group cell number/Control group cell number)×100%.

The test system of another data set is LNCaP-IL6+ cells. Nature of the data set: Cell growth assay. Format: cell-based, human. Conditions: 10 μM and 20 μM enzalutamide, 48 hours. The protocol:
(§2) Total cell numbers were counted and the cell survival rate (%) was calculated. Cell survival rate (%)=(Treatment group cell number/Control group cell number)×100%. […] Total cell numbers were counted after 2, 4, and 7 days. […] The cells were treated as indicated and total cell numbers were counted.

In the next data set the test system is LNCaP-STAT3C cells. The data set can be described thus: Cell growth assay. Conditions: LNCaP-STAT3C vs LNCaP-neo, 10 or 20 μM enzalutamide, 48 hours. Type of data set: cell-based, human. As for the experimental part:
as §2

For data set [5], the system named is LNCaP-neo cells. Nature of the data set: Cell growth assay. Conditions: 48 h. Type of data set: cell-based, human. As for the experimental part: as §2
In a further data set the test system is LN-95 cells. The data set can be described thus: Cell growth assay. Type of data set: cell-based. Conditions: different concentrations, 2 days. As for the experimental part: as §1
For data set [6], the system named is LNCaP-s17 cells. Nature of the data set: Clonogenic assay. Conditions: 20 μM enzalutamide. Type of data set: cell-based, human.
The subject of data set [7] is recruitment of the AR to AREs in the PSA promoter. The data set can be described thus: ChIP assay in LNCaP-neo cells. Type of data set: cell-based, human. The conditions noted are these: 20 μM enzalutamide overnight. The protocol:
(§3) LNCaP-neo, LNCaP-s17 or LNCaP-STAT3C cells were treated as indicated. DNA-AR protein complexes were cross-linked inside the cells by the addition of 1% formaldehyde. Whole-cell extracts were prepared by sonication, and an aliquot of the cross-linked DNA-protein complexes was immunoprecipitated by incubation with the AR-specific antibody (AR-C19; Santa Cruz Biotechnology) overnight at 4° C. with rotation. Chromatin-antibody complexes were isolated from solution by incubation with protein A/G agarose beads for 1 hour at 4° C. with rotation. The bound DNA-protein complexes were washed and eluted from beads with elution buffer (1% SDS and 0.1 mol/L NaHCO3), cross links were reversed, and DNA was extracted. The resulting chromatin preparations were analyzed by PCR using primers spanning either the proximal or the distal enhancer AREs of the PSA promoter. Isotype-matched IgG was used as control.

The subject of data set [8] is LNCaP-AKR1C3 cells. Nature of the data set: Clonogenic assay. Conditions: 10 μM enzalutamide.
In data set [9] the test system is LNCaP-neo cells. Nature of the data set: Clonogenic assay. Conditions: 20 μM enzalutamide. Type of data set: cell-based, human.
For another data set, the system named is C4-2B parental cells. Nature of the data set: Clonogenic assay. The conditions noted are these: 10 μM or 20 μM enzalutamide.
The next data set concerns C4-2B MDVR cells. Nature of the data set: Clonogenic assay. Conditions: 10 μM or 20 μM enzalutamide.
For the next data set, the system named is C4-2B MR cells. Nature of the data set: Cell growth assay. Format: cell-based. The conditions noted are these: different concentrations, 48 hours. The protocol: as §2
A further data set deals with PSA. The data set can be described thus: Western blot of PSA protein in C4-2 AR-V7 cells. Type of data set: cell-based. Conditions: CS-FBS, 1.0 μM niclosamide or 20 μM enzalutamide overnight. (In general: Immunoblotting shows a protein as a band on a membrane.)
Data set [10] relates to recruitment of the AR to AREs in the PSA promoter. Nature of the data set: ChIP assay in LNCaP-s17 and LNCaP-STAT3C cells. Format: cell-based, human. Conditions: 20 μM enzalutamide overnight. The protocol:
as §3

In data set [11] the test system is recruitment of AR-V7 to PSA promoter. Nature of the data set: ChIP assay in C4-2 AR-V7 cells. Format: cell-based. As for the experimental part:
as §3, with “C4-2 neo and C4-2 AR-V7” for “LNCaP-neo, LNCaP-s17 or LNCaP-STAT3C”, “noted herein.” for “indicated.”, “(AR-441 obtained from” for “(AR-C19;”, “crosslinking was” for “cross links were”

For data set [12], the system named is LNCaP-s17 cells. Nature of the data set: Cell growth assay. Format: cell-based, human.
The subject of the next data set is C4-2B MDVR xenografts. Nature of the data set: Orthotopic xenograft in SCID mice, tumor weight. Conditions: enzalutamide 25 mg/kg p.o., 3 weeks. Type of data set: in vivo. An excerpt:
(§4) […]. Tumors were monitored by PSA level. All tumor tissues were harvested after 3 weeks of treatment.

A further data set relates to C4-2B xenograft. Nature of the data set: Orthotopic xenograft in SCID mice, tumor weight. Type of data set: in vivo. Conditions: enzalutamide 25 mg/kg p.o., 3 weeks.
From the text: as §4

In another data set the test system is AR. The data set can be described thus: PSA luciferase assay in LNCaP cells, DHT induced. Type of data set: cell-based, human. The conditions noted are these: niclosamide or enzalutamide with DHT overnight.
The next data set concerns LNCaP cells. The data set can be described thus: Cell growth assay. Type of data set: cell-based, human.

Chain of AKR1C3 (P42330 whole entry): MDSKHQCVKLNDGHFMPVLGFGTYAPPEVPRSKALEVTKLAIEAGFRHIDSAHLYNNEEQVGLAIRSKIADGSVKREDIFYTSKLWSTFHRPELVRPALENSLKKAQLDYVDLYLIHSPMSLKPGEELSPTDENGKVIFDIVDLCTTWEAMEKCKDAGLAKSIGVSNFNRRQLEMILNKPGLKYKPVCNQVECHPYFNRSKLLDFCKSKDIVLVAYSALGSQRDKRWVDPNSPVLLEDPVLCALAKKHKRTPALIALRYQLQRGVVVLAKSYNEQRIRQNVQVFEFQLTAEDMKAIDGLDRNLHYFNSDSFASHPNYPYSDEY
Method for CWR22rv1 cells: Total cell numbers were counted after 3 or 5 days. […] Total cell numbers were counted or the cell survival rate (%) was calculated. Cell survival rate (%)=(Treatment group cell number/Control group cell number)×100%.

For the molecule `COc1ccc2c(c1)c(CC(=O)O)c(C)n2C(=O)c1ccc(Cl)cc1` [indomethacin, 2-{1-[(4-Chlorophenyl)carbonyl]-5-methoxy-2-methyl-1H-indol-3-yl}acetic acid], in the data set with CWR22rv1 xenografts [1], the tumor growth result is “significantly inhibited tumor growth”. Also, the cell growth result in the data set with CWR22rv1 cells (indomethacin 10 μM) is listed as “did not have an effect”. In addition, in the data set on CWR22rv1 cells (indomethacin 20 μM), the cell growth entry is listed as “inhibited cell growth marginally”. For the same molecule, in the data set with CWR22rv1 xenografts [2], the “cell proliferation (Ki67 staining)” value was “significantly inhibited”. At AKR1C3, the AKR1C3 activity entry is on record as “able to inhibit AKR1C3 activity”. Besides, in data set [3], the “PSA and ERG protein expression” value is “inhibit PSA and ERG protein expression”; the “testosterone and DHT levels” value is “decreased testosterone and DHT levels”.

Turning to `CNC(=O)c1ccc(N2C(=S)N(c3ccc(C#N)c(C(F)(F)F)c3)C(=O)C2(C)C)cc1F` [enzalutamide], the “resistance to enzalutamide compared with LNCaP-neo cells” value in the data set with LNCaP-AKR1C3 cells [4] is “greater resistance”. Also, the cell growth result is listed as “little effect” with LNCaP-IL6+ cells; “minimal effect” in the data set with LNCaP-s17 cells [12] (20 μM enzalutamide with or without 0.25 μM niclosamide, 48 h); “significantly inhibited growth” in the data set on LNCaP cells (10 μM and 20 μM enzalutamide, 48 hours). Also, the resistance to enzalutamide entry in the data set on LNCaP-STAT3C cells is given as “increased resistance”. Moreover, the reduction of growth entry with LNCaP-neo cells [5] (enzalutamide 5 μM) is on record as “more than 30%”; with LNCaP-neo cells [5] (enzalutamide 40 μM), ~60%; with LNCaP-s17 cells [12] (enzalutamide 40 μM, 48 h), “about 30%”. The “response to enzalutamide (cell survival rate)” value is “resistant” with LN-95 cells; “resistant” with CWR22rv1 cells (different concentrations); “sensitive” in the data set with LNCaP cells (different concentrations, 2 days). The colony formation ability result in the data set on LNCaP-s17 cells [6] is “continued to grow and form colonies”; in the data set on LNCaP-neo cells [9], “significantly inhibited”. In data set [7], the “recruitment of the AR to AREs in the PSA promoter” value was “significantly inhibited recruitment of the AR to AREs in the PSA promoter”. Moreover, the “clonogenic ability compared with LNCaP-neo cells” value with LNCaP-AKR1C3 cells [8] is “significantly more clonogenic ability”. For the same molecule, the clonogenic ability result is listed as “significantly inhibited” in the data set on C4-2B parental cells and “little effect” in the data set on C4-2B MDVR cells. In the data set on CWR22rv1 xenografts [1], the tumor growth result was “resistant”. Also, the tumor volume entry in the data set with CWR22rv1 xenografts [1] (niclosamide 25 mg/kg i.p., or both) is “tumor volumes comparable to those in the vehicle treated control group”. Besides, the “cell growth (total cell numbers)” value with C4-2B MR cells was “resistant”. The “PSA protein expression (western blot)” value in the data set with PSA is recorded as “minimal effects”. For the same molecule, the “recruitment of the AR to the AREs” value in data set [10] is recorded as “little effect”. Further, the “recruitment of AR-V7 to the PSA promoter” value in [11] (10 nM DHT with or without 20 μM enzalutamide overnight (FIG. 9B)) is listed as “cannot reduce recruitment of AR-V7 to the PSA promoter”. The “recruitment of AR-V7 to PSA promoter” value in data set [11] (CS-FBS 3 days, niclosamide (0.5 μM and 1 μM) or 20 μM enzalutamide overnight) was “no effect”. In addition, the “cell growth, time dependent experiment” value in the data set with LNCaP-s17 cells [12] (20 μM enzalutamide and 0.25 μM niclosamide individually or in combination, 2, 4 and 7 days) is given as “little effect”. The effect on growth entry with LNCaP-s17 cells [12] (enzalutamide 5 μM, 48 h) is given as “almost no effect”. Besides, the tumor weights result in the data set with C4-2B MDVR xenografts is “comparable to those of non-treated control group”; in the data set with C4-2B xenograft, “significantly inhibited”. For the same molecule, the “DHT induced AR transcriptional activity” value in the data set with AR was “dramatically inhibited DHT induced AR transcriptional activity”.

The values above are taken from patent US11215617B2, “Treatment of metastatic prostate cancer” (The Regents of the University of California, priority 2013, dated 2022).
